Measurements published in patent EP3958980B1, “TARGETED NOVEL TRIAZOLOTHIADIAZINE DERIVATIVES FOR THE TREATMENT OF LUNG CANCER” (Anadolu Universitesi, priority 2020, dated 2021).
Several values for one entry are separate records, joined by “and”; a condition that tells them apart may be missing. Equal values may be shown once.

System: Akt
Experiment: Akt colorimetric in cell ELISA in A549 cells
Type: cell-based, human
Settings: 24 hours; for Akt inhibition (in words): compared to cisplatin and GSK690693
Method: After 10.000 cells were seeded in the wells, they were kept in the incubator for 24 hours. […] Briefly, the medium was removed from the wells and 100 µL of 4% formaldehyde was added. The plate was incubated in a fume hood for 15 minutes. Formaldehyde was removed and the plate was washed twice with 1X […] (TBS) such as to be 100 µL/well. 1X TBS was removed and 100 µL 1X permeabilization solution was added to each well and it was kept at room temperature for 15 minutes. After the 1X permeabilization solution was removed, the wells were washed with 100 µL 1X TBS once. 1X TBS was removed and 100 µL quenching solution was added to each well and it was kept at room temperature for 20 minutes. Afterwards, this solution was removed. The plate was washed 1 time with 1X TBS and 100 µL blocking solution was added to the wells and it was kept at room temperature for 30 minutes. At the end of this period, the blocking solution was removed and 50 µL primary antibody was added to the wells. The plate was sealed with a cover and it was incubated overnight at 4 °C. The primary antibody was removed and the plate wells were washed 3 times with 100 µL 1X washing solution. After the washing solution was removed, 100 µL diluted horseradish peroxidase (HRP) conjugate was added and it was incubated at room temperature for 30 minutes. Later on this conjugate was removed and 100 µL 3,3',5,5'-tetramethylbenzidine (TMB) […] was added to each well and the absorbance values were read at 450 nm for 30 minutes. The experiment was carried out in triplicate. The values of the blank wells were subtracted from the values of the untreated control and treated cells. The Akt activity% was determined as the relative absorbance of treated versus untreated control cells.

[1] = IC50/2 concentration (9: 2.88; 11: 0.37; 12: 0.40; 14: 1.32; GSK690693: 3.34; Cisplatin: 11.50 µg/mL)
[2] = IC50/4 concentration (9: 1.44; 11: 0.18; 12: 0.20; 14: 0.66; GSK690693: 1.69; Cisplatin: 5.75 µg/mL)
[3] = IC50 concentration (9: 5.75; 11: 0.73; 12: 0.80; 14: 2.63; GSK690693: 6.75; Cisplatin: 23.00 µg/mL)

N.N.[Cl][Pt][Cl] [Cisplatin, reference compound]
Akt Inhibition% [1]: 56.23±1.45% | Akt Inhibition% [2]: 50.46±6.89% | Akt Inhibition% [3]: 59.55±8.44% | Akt Inhibition% (IC50 concentration (9: 5.75; 11: 0.73; 12: 0.80; 14: 2.63; GSK690693: 6.75; Cisplatin: 23.00 µg/mL), listed as cisplatin): 59.55%

CS(=O)(=O)c1ccc(C2=Nn3c(CCc4ccc5c(c4)OCO5)nnc3SC2)cc1 [Compound 9]
Akt Inhibition% [1]: 7.31±1.48% | Akt Inhibition% [2]: 15.99±1.06% | Akt Inhibition% [3]: 45.47% and 45.47±3.76% | Akt inhibition (in words): moderate Akt inhibition

FC(F)(F)c1ccc(C2=Nn3c(CCc4ccc5c(c4)OCO5)nnc3SC2)cc1 [Compound 11, 3-[2-(1,3-Benzodioxole-5-yl)ethyl]-6-(4-trifluoromethylphenyl)-7H-[1,2,4]triazolo [3,4-b][1,3,4]thiadiazine]
Akt Inhibition% [1]: 6.66±3.51% | Akt Inhibition% [2]: 0.91±1.29% | Akt Inhibition% [3]: 8.18±3.74% | Akt inhibition (in words): did not exhibit significant Akt inhibition

Fc1cccc(C2=Nn3c(CCc4ccc5c(c4)OCO5)nnc3SC2)c1 [Compound 12, 3-[2-(1,3-Benzodioxole-5-yl)ethyl]-6-(3-fluorophenyl)-7H-[1,2,4]triazolo [3,4-b] [1,3,4]thiadiazine]
Akt Inhibition% [1]: 16.67±0.05% | Akt Inhibition% [2]: 19.24±2.43% | Akt Inhibition% [3]: 46.87% and 46.87±4.60% | Akt inhibition (in words): moderate Akt inhibition

c1ccc(-c2ccc(C3=Nn4c(CCc5ccc6c(c5)OCO6)nnc4SC3)cc2)cc1 [Compound 14, 3-[2-(1,3-Benzodioxole-5-yl)ethyl]-6-(biphenyl-4-yl)-7H-[1,2,4]triazolo[3,4-b] [1,3,4]thiadiazine]
Akt Inhibition% [1]: 15.99±3.66% | Akt Inhibition% [2]: 23.51±3.00% | Akt Inhibition% [3]: 44.30% and 44.30±5.68% | Akt inhibition (in words): moderate Akt inhibition
